Legend:
[1] = Dog screening IV/PO pharmacokinetics; type: in vivo; conditions: male, plasma, mean residence time, IV/PO procedure
Procedure: Plasma pharmacokinetic parameters for clearance, volume of distribution, half-life, mean residence time (MRT) and oral bioavailability were determined in dogs from oral administration and IV administration studies. 4 male dogs, typically weighing 8-12 kilograms, were fasted overnight prior to dosing. Compounds were prepared for oral and IV dosing by addition to a vehicle, depending on the dose used. For a typical preparation, 1 mg per mL (IV) or 1.5 mg per mL (oral) of test compound was added to vehicle comprised of 20% dimethyl sulfoxide (DMSO), 60% polyethylene glycol 400 (PEG400) and 20% water. IV formulation was administered to 2 dogs via the saphenous or cephalic vein, and oral dosing was administered to 2 dogs via oral gavage. Blood was collected by the cephalic or jugular vein, typically at predose, 2 min, 8 min, 15 min, 30 min, and 1, 2, 4, 6, 8 and 24 hr postdose for IV, and at predose, 15 min, 30 min, and 1, 2, 4, 6, 8, and 24 hr for oral dosing. Samples were collected in K2EDTA tubes, stored on ice, and centrifuged. Plasma was transferred to a micro titer plate and stored at −70° C. until analysis. Plasma samples were extracted using protein precipitation and analyzed by liquid chromatography separation followed by mass spec detection (LCMS/MS), using a standard curve for each compound. Plasma pharmacokinetic parameters were calculated for IV and oral dosing data by non-compartmental methods. Oral bioavailability was determined as the ratio of the dose-normalized plasma area under the curve (AUC) following oral dosing vs. IV dosing.

human tissue kallikrein = human tissue kallikrein (Homo sapiens (Human), UniProt P06870); assay: Inhibition of tissue kallikrein enzymatic activity (tKal); type: biochemical; conditions: human tissue kallikrein 5 nM, N-acetyl-KPR-AFC substrate, 25° C.
Sequence of human tissue kallikrein (P06870 25-262): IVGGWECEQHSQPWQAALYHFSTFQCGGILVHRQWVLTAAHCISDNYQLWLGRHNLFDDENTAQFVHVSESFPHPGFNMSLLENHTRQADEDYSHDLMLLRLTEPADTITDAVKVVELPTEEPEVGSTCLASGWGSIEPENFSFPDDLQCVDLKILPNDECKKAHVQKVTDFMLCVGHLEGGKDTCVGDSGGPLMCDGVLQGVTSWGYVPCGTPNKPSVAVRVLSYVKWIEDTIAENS
Procedure: Compounds were assayed with human tissue kallikrein (RayBiotech, Cat #228-10996 or Evotec, final concentration 5 nM) in 50 mM HEPES, 150 mM NaCl, 5 mM CaCl2, 0.1% PEG pH 7.4 at 25° C. in a Corning 3575 non-binding surface microplate. Compounds were tested in 10-point dose titrations starting at 166.67 uM with a 3-fold dilution series. Tissue kallikrein enzymatic activity was determined by measuring the rate of cleavage of N-acetyl-KPR-AFC substrate (Sigma, Cat #C6608, final concentration 100 uM) by continuously monitoring the fluorescence at 400/505 nm using a Tecan Safire plate-reader. The initial reaction rates (0 to 20 minutes) were used to determine percent inhibition. The % Inhibition for each data point was recalculated from the RFU/min data and analyzed using the log(inhibitor) vs. response four parameters equation with the GraphPad Prism software.

human Factor XIa = human Factor XIa (Homo sapiens (Human), UniProt P03951); assay: Factor XIa assay; type: biochemical; conditions: human Factor XIa 0.04 nM, GPR-AFC substrate, 25° C.; read-out: FXIa IC50
Sequence of human Factor XIa (P03951 388-625): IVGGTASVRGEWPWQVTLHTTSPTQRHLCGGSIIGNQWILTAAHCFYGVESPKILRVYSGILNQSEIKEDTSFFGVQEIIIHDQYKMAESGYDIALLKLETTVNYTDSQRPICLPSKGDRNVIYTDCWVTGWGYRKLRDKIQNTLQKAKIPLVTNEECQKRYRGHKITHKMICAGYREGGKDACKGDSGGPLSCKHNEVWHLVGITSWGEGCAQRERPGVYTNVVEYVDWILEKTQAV
Sequence of human Factor XIa (P03951 19-387 partner): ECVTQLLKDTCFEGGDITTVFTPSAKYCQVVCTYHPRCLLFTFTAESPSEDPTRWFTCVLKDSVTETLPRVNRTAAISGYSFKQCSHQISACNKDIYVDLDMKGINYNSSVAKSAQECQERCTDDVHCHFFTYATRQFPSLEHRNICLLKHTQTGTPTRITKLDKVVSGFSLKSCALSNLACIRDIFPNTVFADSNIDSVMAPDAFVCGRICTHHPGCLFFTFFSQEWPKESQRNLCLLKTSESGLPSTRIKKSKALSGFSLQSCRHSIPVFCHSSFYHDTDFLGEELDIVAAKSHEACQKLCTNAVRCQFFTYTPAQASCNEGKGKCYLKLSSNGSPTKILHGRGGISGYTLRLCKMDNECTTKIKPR
Procedure: The effectiveness of a compound of the present invention as an inhibitor of Coagulation Factor XIa can be determined using a relevant purified serine protease, and an appropriate synthetic substrate. The rate of hydrolysis of the chromogenic or fluorogenic substrate by the relevant serine protease was measured both in the absence and presence of compounds of the present invention. Assays were conducted at room temperature or at 37° C. […] A decrease in the rate of fluorescence change in the presence of inhibitor is indicative of enzyme inhibition. Such methods are known to one skilled in the art. The results of this assay are expressed as the half-maximal inhibitory concentrations (IC50), or the inhibitory constant, Ki.
Compounds were pre-incubated for 30 minutes at 25° C. with human (0.04 nM) Factor XIa in 50 mM HEPES buffer with 150 mM sodium chloride, 5 mM calcium chloride, 0.1% PEG 8000, pH 7.4. Factor XIa enzymatic activity was determined by addition of the substrate glycine-proline-arginine-7-amido-4-trifluoromethylcoumarin (GPR-AFC) and measurement of the fluorescence at 400/505 nm after a 60 minute incubation at 25° C. The % inhibition for each data point was calculated from the data and analyzed using the log (inhibitor) vs. response four parameters equation to determine the half-maximal inhibitory concentrations (IC50). The IC50 were, converted to equilibrium inhibitory constants (Ki) using the Cheng-Prusoff equation.

[2] = Dog cassette IV pharmacokinetics; type: in vivo; conditions: male, plasma, mean residence time, cassette IV procedure
Procedure: Plasma pharmacokinetic parameters for clearance, volume of distribution, half-life, and mean residence time (MRT) were determined in dogs from IV cassette administration studies. 2 male dogs, typically weighing 8-12 kilograms, were fasted overnight prior to dosing. Compounds were prepared for IV dosing by addition to a vehicle, depending on the dose used. For a typical preparation, 1 mg per mL (IV) of up to 5 test compounds were added to vehicle comprised of 20% dimethyl sulfoxide (DMSO), 60% polyethylene glycol 400 (PEG400) and 20% water. IV formulation was administered to 2 dogs via the saphenous or cephalic vein. Blood was collected by the cephalic or jugular vein, typically at predose, 2, 8, 15, 30 min, 1, 2, 4, 6, 8 and 24 hr postdose. Samples were collected in K2EDTA tubes, stored on ice, and centrifuged. Plasma was transferred to a micro titer plate and stored at −70° C. until analysis. Plasma samples were extracted using protein precipitation and analyzed by liquid chromatography separation followed by mass spec detection (LCMS/MS), using a standard curve for each compound. Plasma pharmacokinetic parameters were calculated by non-compartmental methods.

MRT [1] [h]	IC50 (human tissue kallikrein) [nM]	IC50 (human Factor XIa) [nM]	MRT [2] [h]	Structure (SMILES)
11	90000	2.9		COC(=O)Nc1ccc2c(c1)NC(=O)C(C)(C)CCC[C@H](c1ccc(-c3cc(F)ccc3-n3cc(C(F)(F)F)cn3)c[n+]1[O-])c1nc-2c(C)[nH]1 [Example 2, (R.Z)-5-(5-fluoro-2-(4-(trifluoromethyl)-1H-pyrazol-1-yl)phenyl)-2-(2^4-((methoxycarbonyl)amino)-1^5,5,5-trimethyl-4-oxo-1^1H-3-aza-1(4,2)-imidazola-2(1,2)-benzenacyclononaphane-9-yl)pyridine 1-oxide]
	> 167000	0.89	10	COC(=O)Nc1ccc2c(c1)NC(=O)C(C)(C)CCC[C@H](c1ccc(-c3cc(Cl)ccc3-n3cc(C(F)(F)F)cn3)c[n+]1[O-])c1nc-2c(C)[nH]1 [Example 3]
8.7	> 167000	0.9		COC(=O)Nc1ccc2c(c1)NC(=O)C(C)(C)CCC[C@H](c1ccc(-c3cc(Cl)ccc3-n3cc(C(F)F)cn3)c[n+]1[O-])c1nc-2c(C)[nH]1 [Example 4, (R,Z)-5-(5-chloro-2-(4-(difluoromethyl)-1H-pyrazol-1-yl)phenyl)-2-(2^4-((methoxycarbonyl)amino)-1^5,5,5-trimethyl-4-oxo-1^1H-3-aza-1(4,2)-imidazola-2(1,2)-benzenacyclononaphane-9-yl)pyridine 1-oxide]
10	> 167000	2		COC(=O)Nc1ccc2c(c1)NC(=O)C(C)(C)CCC[C@H](c1ccc(-c3cc(F)ccc3-c3cnn(C(F)(F)F)c3)c[n+]1[O-])c1nc-2c(C)[nH]1 [Example 5, (R,Z)-5-(5-fluoro-2-(1-(trifluoromethyl)-1H-pyrazol-4-yl)phenyl)-2-(2^4-((methoxycarbonyl)amino)-1^5,5,5-trimethyl-4-oxo-1^1H-3-aza-1(4,2)-imidazola-2(1,2)-benzenacyclononaphane-9-yl)pyridine 1-oxide]
14.5		4.4		COC(=O)Nc1ccc2c(c1)NC(=O)C(C)(C)CCC[C@H](c1ccc(-c3cc(Cl)cnc3OC(F)F)c[n+]1[O-])c1nc-2c(C)[nH]1 [Example 6, (R,Z)-5′-chloro-2′-(difluoromethoxy)-6-(2^4-((methoxycarbonyl)amino)-1^5,5,5-trimethyl-4-oxo-1^1H-3-aza-1(4,2)-imidazola-2(1,2)-benzenacyclononaphane-9-yl)-[3,3′-bipyridine]1-oxide]

Structure (SMILES)	MRT [1] [h]	IC50 (human tissue kallikrein) [nM]	IC50 (human Factor XIa) [nM]	MRT [2] [h]
COC(=O)Nc1ccc2c(c1)NC(=O)C(C)(C)CCC[C@H](c1ccc(-c3c(-n4cc(C(F)(F)F)cn4)ccc(F)c3F)c[n+]1[O-])c1nc-2c(C)[nH]1 [Example 1, (R,Z)-5-(2,3-difluoro-6-(4-(trifluoromethyl)-1H-pyrazol-1-yl)phenyl)-2-(2^4-((methoxycarbonyl)amino)-1^5,5,5-trimethyl-4-oxo-1^1H-3-aza-1(4,2)-imidazola-2 (1,2)-benzenacyclononaphane-9-yl)pyridine 1-oxide]	10	> 167000	1.5	

From patent US12344616B2, “Factor XIa inhibitors” (Merck Sharp & Dohme LLC, priority 2018, dated 2025)
